In PMC11752117 (Journal of Traditional and Complementary Medicine, 2024) one finds IC50 data, which are given here for 1 compound.

Molecules are shown by their SMILES.

The IC50 is the point on the concentration scale where inhibition reaches its midpoint.

Holding throughout (test): microbe, parasite or virus in culture
Holding throughout (type): cell-based

One test deals with SARS-CoV-2 Delta variant. The conditions noted are these: Severe acute respiratory syndrome coronavirus 2, A549, 48 h, read-out: IC50, inhibition of SARS-CoV-2 infection.
The test system of test [1] is SARS-CoV-2 Omicron BA.2 variant. The conditions noted are these: Severe acute respiratory syndrome coronavirus 2, A549, 48 h, read-out: IC50, inhibition of SARS-CoV-2 infection.
For another test, the system named is SARS-CoV-2 Alpha variant. The note with it: Severe acute respiratory syndrome coronavirus 2, A549, 48 h, read-out: IC50, inhibition of SARS-CoV-2 infection, Alpha, A549-ACE2-TMPRSS2, 1.56 to 50 μM for 2 days, n = 2.

Regarding `C=C1CC[C@@H]2[C@](C)(CO)[C@H](O)CC[C@@]2(C)[C@@H]1C/C=C1/C(=O)OC[C@H]1O` [Andrographolide, andrographolide], the half-inhibitory concentration (IC50) in the test with SARS-CoV-2 Delta variant came to 7.35 µM; in test [1], 4.62 µM; in the test on SARS-CoV-2 Alpha variant, 7.08 µM.
